pIC50: −log10 of the molar value. Values joined by “and” are separate entries in the source; they are usually repeats but may differ in a detail not shown here. Equal entries are not always repeated. Marks after values point to notes of the source that are not given here.

One assay has as its system KOPN8. In words: Kinase inhibitor drug combination screen (MTS, Bliss-independence analysis).
Assay [1] deals with MOLM14, Kasumi-1, KOPN8 and RCH-ACV leukemia cell lines. Briefly: Kinase inhibitor drug combination screen, summary over the four leukemia cell lines. The settings on record: for No. Cell Lines: cell lines synergistically inhibited (>10% over Bliss) by drug 1 combined with AS and/or ART-838.
Text: Hits were ranked by the observed inhibition over the Bliss independence prediction.
Combinations with positive values for this Bliss difference were considered synergistic, values near zero, additive, and negative values, antagonistic.
Another assay relates to RCH-ACV. Briefly: Kinase inhibitor drug combination screen (MTS, Bliss-independence analysis).
For another assay, the system named is MOLM14. Described as above.
In the next assay the test system is KOPN8 cells. Briefly: alamarBlue cytotoxicity assay, single-drug IC50, 48 h. Format: cell-based. The settings on record: Homo sapiens, KOPN-8. The procedure: Cytotoxicity was assessed using alamarBlue assays (Life Technologies, Grand Island, N.Y.; used for IC50 determinations and all drug combinations except the drug combination screen (method described separately below)) or Trypan Blue dye exclusion (Life Technologies, Grand Island, N.Y.; used only for experiments using inhibitors that could interfere with alamarBlue assay performance (NAC, Tiron, DFO)).
Cell lines were seeded in 96-well tissue culture plates at 10^4 cells per well (myeloid leukemia lines) or 2×10^4 cells per well (lymphoid leukemia lines) in culture medium, followed by addition of drugs at the indicated concentrations. 2-4 wells per plate containing media-only were included for background subtraction. Peripheral wells were filled with sterile water to minimize the effects of evaporation.
MOLM14 cells were treated with each of these drugs, alone and in combination with ART-838 or AS at an equipotency ratio based on the IC50s for each drug (Table 1). In Table 1, KOPN8 and MOLM14 cell lines were treated with a range of concentrations of each drug for 48 h then cytotoxicity was measured via alamarBlue assay. Results were normalized to cells treated with vehicle (≦0.5% DMSO) alone. IC50s were calculated using CompuSyn software and represent the means of at least three experiments performed in triplicate. Addition of ART-838 or AS enhanced the cytotoxicity of all six tested drugs across a range of concentrations (FIG. 2). Drug interactions were typically most favorable (more additive/synergistic or less antagonistic) at higher doses.
Background: The colour change of resazurin is a common sign of viable cells or microbes.

Where [2] appears, read: KOPN8, Drug 2 = ART-838 at approximate IC50, 48 h.
Where [3] appears, read: Drug 2 = ART-838 at approximate IC50, 48 h.
The mark [4] stands for this setting: MOLM14, Drug 2 = ART-838 at approximate IC50, 48 h.
[5] abbreviates: Drug 2 = AS at approximate IC50, 48 h.
[6] abbreviates: MOLM14, Drug 2 = AS at approximate IC50, 48 h.
[7] abbreviates: KOPN8, Drug 2 = AS at approximate IC50, 48 h.

Take `O=C(Nc1cccc(C(F)(F)F)c1)Nc1cc(S(=O)(=O)NC2CC2)ccc1-c1ccsc1` [AGI6780]: the “fractional inhibition over Bliss prediction” value in the assay with KOPN8 (setting [2]) is “KOPN8 (0.17),”; with RCH-ACV (setting [3]), “RCH-ACV (0.11)”. Besides, the “No. Cell Lines” value in assay [1] is given as 2/4**.
For `CC(C)C[C@H](NC(=O)[C@H](Cc1ccccc1)NC(=O)c1cnccn1)B(O)O` [Bortezomib], the “No. Cell Lines” value in assay [1] is listed as 2/4.
In the case of `Cc1c[nH]c(-c2cnc(NCCNc3ccc(C#N)cn3)nc2-c2ccc(Cl)cc2Cl)n1` [CHIR-99021], the “fractional inhibition over Bliss prediction” value in the assay on MOLM14 (setting [4]) is “MOLM14 (0.53)”; with RCH-ACV (setting [5]), “RCH-ACV (0.15)”. For the same compound, the “No. Cell Lines” value in assay [1] was 2/4.
For the compound `C[C@@H](Oc1cc(-c2cnn(C3CCNCC3)c2)cnc1N)c1c(Cl)ccc(F)c1Cl` [Crizotinib], the figures for the “fractional inhibition over Bliss prediction” value in the assay with KOPN8 (setting [2]) and in the assay on RCH-ACV (setting [5]) were “KOPN8 (0.12)” and “RCH-ACV (0.13)”, respectively. In assay [1], the “No. Cell Lines” value was 2/4**.
On to `C#Cc1cccc(Nc2ncnc3cc(OCCOC)c(OCCOC)cc23)c1` [Erlotinib], for which the “No. Cell Lines” value in assay [1] is 2/4.
With `CCc1cc(Nc2nccc(-c3c(-c4ccc(OC)c(C(=O)Nc5c(F)cccc5F)c4)nc4ccccn34)n2)c(OC)cc1N1CCC(N2CCN(S(C)(=O)=O)CC2)CC1` [GSK-1904529A], the “fractional inhibition over Bliss prediction” value was 0.57 and 0.37 with MOLM14 (setting [4]); 0.30 and 0.27 in the assay on MOLM14 (setting [6]); 0.24 and 0.16 in the assay with KOPN8 (setting [2]); “KOPN8 (0.18),” with KOPN8 (setting [7]); “RCH-ACV (0.14)” with RCH-ACV (setting [3]); “RCH-ACV (0.20)” in the assay with RCH-ACV (setting [5]). Also, in assay [1], the “No. Cell Lines” value is 3/4.
In the case of `COc1ccc(COc2ccc(Cc3cnc(N)nc3N)cc2OC)cc1` [GW-2580], the “fractional inhibition over Bliss prediction” value is “MOLM14 (0.19),” in the assay on MOLM14 (setting [4]); 0.25 and 0.15 in the assay with MOLM14 (setting [6]); “KOPN8 (0.19)” with KOPN8 (setting [2]); “KOPN8 (0.15)” with KOPN8 (setting [7]). Further, the “No. Cell Lines” value in assay [1] was 2/4.
As for `O=S(=O)(NCCNC/C=C/c1ccc(Br)cc1)c1cccc2cnccc12` [H-89], the “fractional inhibition over Bliss prediction” value in the assay with MOLM14 (setting [4]) was “MOLM14 (0.13),”; in the assay with MOLM14 (setting [6]), “MOLM14 (0.21)”; in the assay on KOPN8 (setting [2]), “KOPN8 (0.10)”. Further, the “No. Cell Lines” value in assay [1] is recorded as 2/4.
On to `Cc1ccc(NC(=O)c2ccc(CN3CCN(C)CC3)cc2)cc1Nc1nccc(-c2cccnc2)n1` [Imatinib], for which the “No. Cell Lines” value in assay [1] was 2/4.
With `Cn1cc(-c2ccc3nnc(C(F)(F)c4ccc5ncccc5c4)n3n2)cn1` [JNJ-38877605], the “fractional inhibition over Bliss prediction” value is on record as “MOLM14 (0.17),” in the assay with MOLM14 (setting [4]), “MOLM14 (0.27),” in the assay on MOLM14 (setting [6]), “KOPN8 (0.19)” with KOPN8 (setting [2]) and “KOPN8 (0.12)” in the assay on KOPN8 (setting [7]). Further, in assay [1], the “No. Cell Lines” value is 2/4.
Take `CS(=O)(=O)CCNCc1ccc(-c2ccc3ncnc(Nc4ccc(OCc5cccc(F)c5)c(Cl)c4)c3c2)o1` [Lapatinib]: the “No. Cell Lines” value in assay [1] was 2/4**.
`Cc1ccc(F)c(NC(=O)Nc2ccc(-c3cccc4[nH]nc(N)c34)cc2)c1` [Linifanib]: the “fractional inhibition over Bliss prediction” value with KOPN8 (setting [2]) is 0.19; in the assay on KOPN8 (setting [7]), 0.20.
In the case of `CO[C@@H]1[C@H](N(C)C(=O)c2ccccc2)C[C@H]2O[C@]1(C)n1c3ccccc3c3c4c(c5c6ccccc6n2c5c31)C(=O)NC4` [MID, midostaurin], the pIC50 in the assay on KOPN8 cells was 6.68.
On to `O=C(O)c1ccc(Nc2ncc3c(n2)-c2ccc(Cl)cc2C(c2c(F)cccc2F)=NC3)cc1` [MLN8054], for which the “fractional inhibition over Bliss prediction” value in the assay with MOLM14 (setting [4]) is on record as “MOLM14 (0.15),”; in the assay on KOPN8 (setting [2]), “KOPN8 (0.11)”. Further, the “No. Cell Lines” value in assay [1] is 2/4.
For the compound `CC1(C)CNc2cc(NC(=O)c3cccnc3NCc3ccncc3)ccc21` [Motesanib], the “fractional inhibition over Bliss prediction” value in the assay on KOPN8 (setting [2]) was 0.15; in the assay on KOPN8 (setting [7]), 0.11.
On to `Nc1ncnc2c1c(-c1cccc(OCc3ccccc3)c1)cn2C1CC(CN2CCCC2)C1` (stereo not shown) [NVP-ADW742], for which the “fractional inhibition over Bliss prediction” value in the assay with MOLM14 (setting [4]) is “MOLM14 (0.17),”; in the assay with MOLM14 (setting [6]), “MOLM14 (0.20)”. In assay [1], the “No. Cell Lines” value is 2/4.
For the compound `CCCCCCCCCCCCc1ccc(S(=O)(=O)Nc2nncs2)cc1` [PHT-427], the “fractional inhibition over Bliss prediction” value in the assay with MOLM14 (setting [4]) was 0.20; with MOLM14 (setting [6]), 0.26.
For the compound `Cc1ccc(Nc2nccc(N(C)c3ccc4c(C)n(C)nc4c3)n2)cc1S(N)(=O)=O` [Pazopanib], the “No. Cell Lines” value in assay [1] is listed as 3/4.
For the compound `CS(=O)(=O)N1CCN(Cc2cc3nc(-c4cccc5[nH]ncc45)nc(N4CCOCC4)c3s2)CC1` [Pictilisib], the “fractional inhibition over Bliss prediction” value is 0.14 in the assay with KOPN8 (setting [2]) and 0.12 with KOPN8 (setting [7]).
With `Cc1ccc(S(=O)(=O)OCC(=O)Nc2ccc(C(=O)O)c(O)c2)cc1` [S31-201], the “fractional inhibition over Bliss prediction” value was “MOLM14 (0.18),” in the assay on MOLM14 (setting [4]), “MOLM14 (0.30),” in the assay on MOLM14 (setting [6]), “KOPN8 (0.23)” with KOPN8 (setting [2]) and “KOPN8 (0.17)” with KOPN8 (setting [7]). In assay [1], the “No. Cell Lines” value is reported as 2/4.
Consider `NC(=O)c1ccc(-c2nc(-c3ccc4c(c3)OCO4)c(-c3ccccn3)[nH]2)cc1` [SB-431542], for which the “fractional inhibition over Bliss prediction” value was 0.11 in the assay with MOLM14 (setting [4]) and 0.16 in the assay with MOLM14 (setting [6]).
Regarding `Cc1[nH]c(/C=C2\C(=O)Nc3ccc(S(=O)(=O)N(C)c4cccc(Cl)c4)cc32)c(C)c1C(=O)N1CCN(C)CC1` [SU11274], the “fractional inhibition over Bliss prediction” value was “MOLM14 (0.17),” in the assay with MOLM14 (setting [4]), “MOLM14 (0.28),” in the assay with MOLM14 (setting [6]), “KOPN8 (0.39)” with KOPN8 (setting [2]) and “KOPN8 (0.17)” with KOPN8 (setting [7]). In addition, the “No. Cell Lines” value in assay [1] is reported as 2/4.
Consider `CN1CCN(CCOc2cc(OC3CCOCC3)c3c(Nc4c(Cl)ccc5c4OCO5)ncnc3c2)CC1` [Saracatinib], for which the “fractional inhibition over Bliss prediction” value in the assay with MOLM14 (setting [4]) is recorded as 0.21; in the assay on MOLM14 (setting [6]), 0.33.
For `Cn1cnc2c(F)c(Nc3ccc(Br)cc3Cl)c(C(=O)NOCCO)cc21` [Selumetinib], the “fractional inhibition over Bliss prediction” value in the assay on MOLM14 (setting [4]) is reported as “MOLM14 (0.15),”; in the assay on KOPN8 (setting [2]) it was “KOPN8 (0.19)”. The “No. Cell Lines” value in assay [1] is 2/4.
Consider `COc1cc2nccc(Oc3ccc(NC(=O)Nc4cc(C)on4)c(Cl)c3)c2cc1OC` [Tivozanib], for which the “fractional inhibition over Bliss prediction” value with MOLM14 (setting [6]) is reported as “MOLM14 (0.20),”; with KOPN8 (setting [2]), “KOPN8 (0.22)”; in the assay with KOPN8 (setting [7]), “KOPN8 (0.11)”. For the same compound, the “No. Cell Lines” value in assay [1] is recorded as 2/4.
In the case of `CC(=O)Nc1cccc(-n2c(=O)n(C3CC3)c(=O)c3c(Nc4ccc(I)cc4F)n(C)c(=O)c(C)c32)c1` [Trametinib], the “fractional inhibition over Bliss prediction” value in the assay on KOPN8 (setting [2]) and in the assay with KOPN8 (setting [7]) was 0.20 each time.
With `O=c1ncn2nc(Sc3ccc(F)cc3F)ccc2c1-c1c(Cl)cccc1Cl` [VX-745], the “fractional inhibition over Bliss prediction” value in the assay with MOLM14 (setting [6]) is “MOLM14 (0.11)”; with KOPN8 (setting [2]), “KOPN8 (0.14)”. Besides, the “No. Cell Lines” value in assay [1] is 2/4.
As for `Clc1ccc(Nc2nnc(Cc3ccncc3)c3ccccc23)cc1` [Vatalanib], the “fractional inhibition over Bliss prediction” value in the assay on KOPN8 (setting [2]) was 0.12; with KOPN8 (setting [7]), 0.15.
Take `Oc1nc(-c2ccc(C(F)(F)F)cc2)nc2c1CSCC2` [XAV-939]: the “fractional inhibition over Bliss prediction” value in the assay on MOLM14 (setting [4]) is reported as “MOLM14 (0.17),”; with KOPN8 (setting [2]) it was “KOPN8 (0.18)”; in the assay on RCH-ACV (setting [5]), “RCH-ACV (0.22)”. Further, the “No. Cell Lines” value in assay [1] is 3/4.
For ABT-263, in assay [1] (screens in four human leukemia cell lines), the “synergy with AS or ART-838” value is “Particularly strong synergy”.
As for JAK Inhibitor I, the “fractional inhibition over Bliss prediction” value is given as 0.15 in the assay with MOLM14 (setting [4]) and 0.44 in the assay with MOLM14 (setting [6]).

What is called pIC50 is the negative decadic logarithm of the IC50, by convention in mol/L.

These data come from patent publication US9918972B2, “Treatment of leukemia with artemisinin derivatives and combinations with other antineoplastic agents” (UNIVERSITY OF MARYLAND, BALTIMORE, priority 2014, dated 2018).
